Assay results reported in ChEMBL document CHEMBL4616690, “Assembling Pharma Resources to Tackle Diseases of Underserved Populations” (ACS Med Chem Lett, 2020).
pIC50: −log10 of the molar value.

Columns and labels:
Wolbachia [1] = assay: Antibacterial activity against Wolbachia infected in insect cells; assay type: functional, organism-based
Wolbachia [2] = assay: Potency index, ratio IC50 for doxycycline to IC50 for compound for antibacterial activity against Wolbachia infected in insect cells; assay type: functional
Wolbachia [3] = assay: Potency index, ratio IC50 for TylA to IC50 for compound for antibacterial activity against Wolbachia infected in insect cells; assay type: functional

With `CC[C@H]1OC(=O)C[C@@H](O)[C@H](C)[C@@H](O[C@@H]2O[C@H](C)[C@@H](O[C@H]3C[C@@](C)(O)[C@@H](OCc4ccc(F)cc4)[C@H](C)O3)[C@H](N(C)C)[C@H]2O)[C@@H](CC=O)C[C@@H](C)C(=O)/C=C/C(C)=C/[C@@H]1CO[C@@H]1O[C@H](C)[C@@H](O)[C@@H](OC)[C@H]1OC` [FLUBENTYLOSIN] the pIC50 (Wolbachia [1]) was 10.70, the “Ratio IC50” value (Wolbachia [2]) was over 1000 and the “Ratio IC50” value (Wolbachia [3]) was over 1000.
